Experimental data published in EP0080940B1, “Derivatives of 2-phenyl-morpholine and medical compositions” (LABORATOIRE L. LAFON Société anonyme dite:, priority 1981, dated 1983).

Columns and labels:
souris mâle [1] = test: Acute toxicity by the i.p. route (DL-0, DL-50); format: in vivo; conditions: voie i.p.
Procedure: (§1) On a résumé ci-après les résultats des essais qui ont été entrepris chez l'animal avec le CRL 40914, ce produit étant administré, sauf indications contraires, en solution dans l'eau (à pH 5) par voie intrapéritonéale sous un volume de 20 ml/kg chez la souris mâle et de 5 ml/kg chez le rat mâle.
Chez la souris mâle, la DL-0 (dose maximale non mortelle) par voie i.p. est supérieure à 128 mg/kg.
(§2) On a résumé ci-après les résultats des essais qui ont été entrepris chez l'animal avec le CRL 40915, les modalités opératoires étant celles données ci-dessus pour le CR L 40914.
Chez la souris mâle, la DL-0 (dose maximale non mortelle) par voie i.p. est supérieure à 256 mg/kg, et la DL-50 par voie i.p. est de l'ordre de 500 mg/kg environ.

souris [2] = test: Global behaviour and reactivity, mouse; format: in vivo
Procedure: as §1
Des lots de 3 animaux sont observés avant, puis 15 min, 30 min, 1 h, 2 h, 3 h et 24 h après l'administration de CRL 40914. On observe ce qui suit:
as §2

souris [3] = test: Action on rectal temperature; format: in vivo
Procedure: as §1
Des lots de 6 souris reçoivent le CRL 40914; la température rectale est notée toutes les 30 min.

rats [4] = test: Search for stereotyped movements; format: in vivo; conditions: rat
Procedure: Des lots de 6 rats reçoivent une injection intrapéritonéale de CRL 40914 ou d'amphétamine puis sont immédiatement placés dans des boîtes de petites dimensions où leur comportement stéréotypé est coté de 0 à 3 toutes les 10 min jusqu'à extinction de l'effet.

rats [5] = test: Interaction with amphetamine; format: in vivo; conditions: rat, 8 mg/kg et 32 mg/kg i.p., amphétamine 2 mg/kg i.p.
Procedure: L'amphétamine (2 mg/kg) est injectée par voie intrapéritonéale à des lots de 12 rats, une demi-heure après l'administration de CRL 40914.
as §2

souris [6] = test: Interaction with reserpine; format: in vivo; conditions: 4 mg/kg mais surtout 16 mg/kg et 64 mg/kg i.p., 4 h après réserpine 2,5 mg/kg i.p.
Procedure: Quatre heures après l'injection intrapéritonéale de 2,5 mg/kg de réserpine, des lots de 6 souris reçoivent le CRL 40914.
as §2

souris [7] = test: Four plates test, traction and electroshock; format: in vivo
Excerpt: Le test est pratiqué sur des lots de 10 souris, une demi-heure après l'administration de CRL 40914.
as §2

souris [8] = test: Action on spontaneous motility (actimeter); format: in vivo
Procedure: Une demi-heure après avoir reçu le CRL 40914, des souris sont placées en actimètre où leur motilité est enregistrée pendant 30 min.
as §2

souris [9] = test: Motility reduced by habituation to the enclosure; format: in vivo; conditions: 64 mg/kg i.p.
Procedure: Après 18 h de séjour dans les actimètres, les souris (6 par dose, 12 témoins) reçoivent le CRL 40914. Elles sont aussitôt replacées dans leurs enceintes respectives et, une demi-heure plus tard, on enregistre leur motilité pendant 30 min.
as §2

souris [10] = test: Motility reduced by hypoxic aggression; format: in vivo; conditions: i.p., anoxie hypobare aiguë
Procedure: Une demi-heure après avoir reçu le CRL 40914, les souris (10 par dose, 20 témoins) sont soumises à une anoxie hypobare aiguë [dépression de 600 mm Hg (soit environ 8 x10^4 pascals) en 90 s puis détente de 45 s] puis elles sont placées en actimètre où leur motilité est enregistrée pendant 10min.
as §2

souris [11] = test: Asphyxic anoxia (gallamine triethiodide); format: in vivo
Procedure: Des lots de 10 souris reçoivent le CRL 40914 une demi-heure avant l'administration intrapéritonéale de 32 mg/kg de triiodoéthylate de gallamine (agent curarisant de référence).
as §2

souris [12] = test: Behavioural despair (immobility in water); format: in vivo; conditions: souris en immersion, dès 4 mg/kg i.p.; effet particulièrement net à 64 mg/kg
Excerpt: Une demi-heure après avoir reçu le CRL 40914 ou la désipramine, des lots de 10 souris sont plongés dans un bécher rempli d'eau sur une hauteur de 6 cm. On note la durée d'immobilité de la souris entre la 2ème et la 6ème min suivant son immersion.

souris [13] = test: Interaction with yohimbine, spontaneous motility; format: in vivo; conditions: yohimbine 0,5 mg/kg i.p.
Procedure: Des lots de 12 souris reçoivent la yohimbine (0,5 mg/kg i.p.) et le CRL 40914 respectivement 60 et 30 min avant d'être placées en actimètre où leur motilité est enregistrée pendant une demi-heure.

souris mâle [14] = test: Action on intergroup aggressiveness; format: in vivo
Procedure: Cet effet pourrait résulter de la sédation qui se manifeste à faible dose (4 mg/kg) et de l'excitation motrice qui se manifeste à forte dose (64 mg/kg).

[15] = test system: rats génétiquement hypertendus; test: Action on the cardiovascular system; format: in vivo, rat; conditions: 20 mg/kg par voie buccale
Procedure: Six rats génétiquement hypertendus à cathéter artériel fémoral implanté reçoivent le CRL 40914 à la dose de 20 mg/kg par voie buccale.

homme = test: Clinical use by the oral route; format: in vivo; conditions: voie orale, 2 à 3 comprimés ou gélules (10 à 20 mg chacun) par jour
[16] = souris, 0,25 mg/kg, 1 mg/kg, 4 mg/kg et 16 mg/kg i.p.

CCN1CCOC(c2ccccc2)C1 (centres unmarked) [CRL 40914, Chlorhydratede 2-phényl-4-éthyl-morpholine]
DL-0 (dose maximale non mortelle) (souris mâle [1]): > 128 mg/kg | mydriase (souris [2]; 2 mg/kg i.p.): mydriase pendant 1 h | sédation (souris [2]; 2 mg/kg i.p.): sédation pendant 30 à 60 min | hypothermie (souris [2]; 2 mg/kg i.p., pendant 1 à 2 h): -3,6 °C | mydriase (souris [2]; 4 mg/kg i.p.): mydriase pendant 1 heure | sédation (souris [2]; 4 mg/kg i.p.): sédation pendant 30 à 60 min | hypothermie (souris [2]; 4 mg/kg i.p., pendant 1 h): -2,2 °C | excitation (souris [2]; 16 mg/kg i.p.): excitation pendant 30 min suivie d'une hyporéactivité au toucher | lacrymation (souris [2]; 16 mg/kg i.p.): lacrymation pendant 1 h | mydriase (souris [2]; 16 mg/kg i.p.): mydriase pendant 1 h | hypothermie (souris [2]; 16 mg/kg i.p., pendant 2 à 3 h): -2,8 °C | excitation (souris [2]; 64 mg/kg i.p.): excitation pendant 1 à 2 h avec manifestation de mouvements stéréotypés | mydriase (souris [2]; 64 mg/kg i.p.): mydriase pendant 1 h | piloérection, salivation et lacrymation (souris [2]; 64 mg/kg i.p.): piloérection, salivation et lacrymation pendant 1 h | polypnée (souris [2]; 64 mg/kg i.p.): polypnée pendant 2 h | durée de l'hypothermie (souris [3]; [16]): 90 à 120 min | température rectale (souris [3]; [16]): hypothermie maximale après 30 min | température rectale (souris [3]; souris, 64 mg/kg i.p.): hyperthermie qui apparaît à 30 min et qui fait ensuite place à une hypothermie modérée | mouvements stéréotypés (rats [4]; 32 mg/kg i.p.): ne provoque pas de stéréotypies | mouvements stéréotypés (rats [4]; 64 mg/kg i.p.): mouvements stéréotypés d'intensité et de durée comparables à ceux observés après administration de 1 mg/kg d'amphétamine | mouvements stéréotypés (rats [4]; 128 mg/kg i.p.): cet effet est encore plus net | stéréotypies amphétaminiques (rats [5]): diminue nettement l'intensité des téréotypies amphétaminiques | hypothermie et ptosis réserpiniques (souris [6]): s'oppose à l'hypothermie et au ptosis réserpinique | effets létaux de l'électrochoc (souris [7]; 64 mg/kg i.p.): aggrave les effets létaux de l'électrochoc | déficit moteur (traction) (souris [7]; i.p.): ne provoque pas de déficit moteur majeur | nombre de passages punis (test des quatre plaques) (souris [7]; i.p., faible dose / forte dose): à faible dose une diminution, et à forte dose une augmentation du nombre de passages punis | activité motrice spontanée (souris [8]; 64 mg/kg i.p.): hyperactivité nette | activité motrice spontanée (souris [8]; dès 0,125 mg/kg i.p., maximum entre 0,5 mg/kg et 16 mg/kg): diminution de l'activité motrice spontanée | activité motrice chez la souris habituée à son enceinte (souris [9]): reprise très nette de l'activité motrice | activité motrice après agression hypoxique (souris [10]): modifications de l'activité motrice qui reflètent son action sur la motilité spontanée | apparition des convulsions et de la mort (anoxie asphyxique) (souris [11]; 1 mg/kg, 4 mg/kg et 16 mg/kg i.p., triiodoéthylate de gallamine 32 mg/kg i.p.): retard d'apparition des convulsions et, à un degré moindre, de la mort | apparition des convulsions et de la mort (anoxie asphyxique) (souris [11]; dose plus élevée (above 16 mg/kg) i.p.): cet effet disparaît | durée d'immobilité (souris [12]): diminue la durée d'immobilité | hypomotilité produite par le CRL 40914 après yohimbine (souris [13]; CRL 40914 1 mg/kg): s'oppose à l'hypomotilité | hypomotilité produite par le CRL 40914 après yohimbine (souris [13]; CRL 40914 16 mg/kg): ne modifie pas celle provoquée par 16 mg/kg | combats (agressivité intergroupe) (souris mâle [14]; 4 mg/kg): supprime les combats entre les souris de 2 groupes différents | durée de contact entre les souris (agressivité intergroupe) (souris mâle [14]; 64 mg/kg): diminue la durée de contact entre les souris | effet sur la pression artérielle [15]: modérément hypotenseur | temps de l'effet maximal sur la pression artérielle [15]: 7 h | variation de la pression artérielle ([15]; 7 h après): -18% | pression artérielle (effet maximal) ([15]; 7 h après, valeur initiale 165): 135 mm Hg | pression artérielle et fréquence cardiaque après 24 h ([15]; 24 h): sont revenues à leur valeur témoin | fréquence cardiaque (minimum) ([15]; après 1,5 h, valeur initiale 350): 270 battements/minute | résultats cliniques (agent antidépresseur du SNC) (homme): d'excellents résultats
